Like-named read-outs stand apart in the source and are kept apart here.
Tests used:
SARS-CoV-2 = type: in vivo; conditions: patients receiving zinc prophylactically for AMD or for treatment of AMD
[1] = molecular target: angiotensin converting enzyme 2 (ACE2) (Homo sapiens, UniProt Q9BYF1); conditions: Speth et al. 2014, cited from earlier work
angiotensin converting enzyme 2 (ACE2), sequence (Q9BYF1 18-805): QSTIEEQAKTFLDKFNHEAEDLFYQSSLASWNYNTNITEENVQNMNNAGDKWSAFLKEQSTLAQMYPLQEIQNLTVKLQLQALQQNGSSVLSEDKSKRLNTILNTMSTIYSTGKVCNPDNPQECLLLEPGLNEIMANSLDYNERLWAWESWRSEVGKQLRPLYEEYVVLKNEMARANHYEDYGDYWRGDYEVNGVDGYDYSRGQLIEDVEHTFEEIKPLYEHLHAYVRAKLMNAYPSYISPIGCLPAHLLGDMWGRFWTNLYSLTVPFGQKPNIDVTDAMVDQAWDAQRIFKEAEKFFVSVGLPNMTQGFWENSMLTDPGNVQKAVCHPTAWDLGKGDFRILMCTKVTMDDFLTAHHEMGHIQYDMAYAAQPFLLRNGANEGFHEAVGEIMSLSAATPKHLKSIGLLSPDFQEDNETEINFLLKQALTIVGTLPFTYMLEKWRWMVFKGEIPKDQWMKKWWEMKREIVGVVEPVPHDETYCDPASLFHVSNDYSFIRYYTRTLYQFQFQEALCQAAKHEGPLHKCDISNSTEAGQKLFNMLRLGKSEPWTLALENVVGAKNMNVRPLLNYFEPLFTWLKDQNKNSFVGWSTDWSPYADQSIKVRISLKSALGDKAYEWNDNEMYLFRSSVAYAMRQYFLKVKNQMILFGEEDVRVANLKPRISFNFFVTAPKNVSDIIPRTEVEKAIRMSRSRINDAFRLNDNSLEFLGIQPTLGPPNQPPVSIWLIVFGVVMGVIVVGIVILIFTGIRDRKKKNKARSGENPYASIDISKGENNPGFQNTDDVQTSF

Question: With zinc as the substance, how does the COVID-19-related deaths (SARS-CoV-2) read?
Answer: Its COVID-19-related deaths is “no COVID-19-related deaths”.

Question: What about the “inhibition of ACE2 function” value [1] of the same substance?
Answer: The value was “inhibitor of ACE2 function”.

Question: What about the “inhibition of ACE2 function” value ([1]; listed as Zinc) of the same substance?
Answer: The value was “can inhibit the function of ACE2”.

From patent US20210322469A1, “ZINC AND COPPER FOR THE PROPHYLAXIS AND TREATMENT OF COVID-19” (Regents of the University of Minnesota, priority 2020, published 2021)
